This assay concerns the target T1, FL hMALT1 enzyme (Homo sapiens, UniProt Q9UDY8).
T1 sequence (Q9UDY8 1-824): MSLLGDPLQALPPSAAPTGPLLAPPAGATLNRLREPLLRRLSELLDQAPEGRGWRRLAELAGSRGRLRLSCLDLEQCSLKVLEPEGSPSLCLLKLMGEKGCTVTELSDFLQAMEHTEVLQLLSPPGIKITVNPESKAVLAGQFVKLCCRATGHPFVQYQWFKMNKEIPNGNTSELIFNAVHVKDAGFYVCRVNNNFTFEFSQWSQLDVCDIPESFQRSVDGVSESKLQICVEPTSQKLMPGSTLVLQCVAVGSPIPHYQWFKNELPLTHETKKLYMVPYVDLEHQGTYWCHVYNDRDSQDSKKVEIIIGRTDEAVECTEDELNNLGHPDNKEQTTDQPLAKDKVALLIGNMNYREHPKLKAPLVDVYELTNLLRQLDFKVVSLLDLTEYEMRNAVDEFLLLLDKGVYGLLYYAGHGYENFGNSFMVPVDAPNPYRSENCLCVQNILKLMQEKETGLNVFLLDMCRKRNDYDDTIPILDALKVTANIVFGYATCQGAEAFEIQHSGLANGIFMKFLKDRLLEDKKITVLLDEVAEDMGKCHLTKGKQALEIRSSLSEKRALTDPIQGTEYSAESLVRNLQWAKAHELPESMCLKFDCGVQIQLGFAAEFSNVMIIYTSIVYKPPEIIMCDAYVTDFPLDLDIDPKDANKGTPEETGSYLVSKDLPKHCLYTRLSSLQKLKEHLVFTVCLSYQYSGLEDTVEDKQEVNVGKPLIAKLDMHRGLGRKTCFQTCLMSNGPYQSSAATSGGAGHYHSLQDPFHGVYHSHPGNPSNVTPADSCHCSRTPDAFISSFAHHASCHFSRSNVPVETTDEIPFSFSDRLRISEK
Description: biochemical.
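Further: Cell-free protease assay: enzyme preincubated with compound 30 min at room temperature, then cleavage of fluorogenic Ac-LVSR-AMC substrate (100 µM) tracked by fluorescence (ex 360/em 460 nm).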

As usually defined, the IC50 is the concentration needed to halve the response being measured. Lower therefore signals higher potency. Regarding `COc1cccc2c1CC(Nc1ccc([C@H](N(C)C(=O)C3CCS(=O)(=O)CC3)C(F)(F)F)nc1)C2` (single isomer, unassigned) [Example 178], the IC50 came to 260 nM. Under `Cc1c(Cl)ccc2c1CC(Nc1ccc([C@H](N(C)C(=O)C3CCS(=O)(=O)CC3)C(F)(F)F)nc1)C2` (single isomer, unassigned) [Example 373] stands 490 nM; under `CNC(=O)C12C3C4C1C1C2C3C41C(=O)N(C)[C@@H](c1ccc(NC2Cc3ccc(Cl)cc3C2)cn1)C(F)(F)F` (stereo partly drawn) [Example 292, N^1-((1S)-1-(5-((5-Chloro-2,3-dihydro-1H-inden-2-yl)amino)pyridin-2-yl)-2,2,2-trifluoroethyl)-N^1,N^4-dimethylcubane-1,4-dicarboxamide], 840 nM. In the case of `CN(C(=O)C1CCS(=O)(=O)CC1)[C@@H](c1ccc(NC2Cc3cc(F)cc(F)c3C2)cn1)C(F)(F)F` (single isomer, unassigned) [Example 269] it was 150 nM. In the case of `CN(C(=O)[C@H]1C[C@@]2(COC(=O)N2)C1)[C@@H](c1ccc(NC2Cc3ccccc3C2(C)C)cn1)C(F)(F)F` (single isomer, unassigned) [Example 207] it was 120 nM. Consider `CN(C(=O)C1CN2CCC1CC2)[C@@H](c1ccc(NC2Cc3ccccc3C2(C)C)cn1)C(F)(F)F` (single isomer, unassigned) [Example 139], for which half-maximal inhibition (IC50) was put at 370 nM.

In the case of `CN(C(=O)C1CCS(=O)(=O)CC1)[C@@H](c1ccc(NC2Cc3cccc(Cl)c3C2)cn1)C(F)(F)F` (single isomer, unassigned) [Example 264], the IC50 came out at 1200 nM. In the case of `CN(C(=O)[C@H]1C[C@@H](O)C1)[C@@H](c1ccc(NC2Cc3ccc(Cl)c(F)c3C2)cn1)C(F)(F)F` (single isomer, unassigned) [Example 383] it was 1600 nM; in that of `CN(C(=O)C1CC2(CCC(=O)N2)C1)[C@@H](c1ccc(NC2Cc3ccc(Cl)c(Cl)c3C2)cn1)C(F)(F)F` (single isomer, unassigned) [Example 342], 1320 nM. `COc1cccc2c1CC(Nc1ccc([C@H](N(C)C(=O)C3CCS(=O)(=O)CC3)C(F)(F)F)nc1)C2` (single isomer, unassigned) [Example 177] came in with an IC50 of 6600 nM. On to `CN1CCCC(C(=O)N(C)[C@@H](c2ccc(NC3Cc4ccccc4C3(C)C)cn2)C(F)(F)F)C1` (single isomer, unassigned) [Example 128], for which the midpoint of inhibition, the IC50, lay at 400 nM. In the case of `CN(C(=O)C1CCS(=O)(=O)C1)[C@@H](c1ccc(NC2Cc3ccc(Cl)c(Cl)c3C2)cn1)C(F)(F)F` (single isomer, unassigned) [Example 357] it was 690 nM; in that of `CN(C(=O)C1CC2(CCC(=O)N2)C1)[C@@H](c1ccc(NC2Cc3ccccc3C2(C)C)cn1)C(F)(F)F` (single isomer, unassigned) [Example 229], 140 nM. Under `CN(C(=O)C1COCC(=O)N1)[C@@H](c1ccc(NC2Cc3ccccc3C2(C)C)cn1)C(F)(F)F` (single isomer, unassigned) [Example 161] stands 310 nM; under `CN(C(=O)C1CN(C(=O)C2CCO2)C1)[C@@H](c1ccc(NC2Cc3ccc(Cl)c(F)c3C2)cn1)C(F)(F)F` (single isomer, unassigned) [Example 386], 2670 nM; under `CN1CC(=O)NCC1C(=O)N(C)[C@@H](c1ccc(N[C@H]2Cc3ccccc3C2(C)C)cn1)C(F)(F)F` (single isomer, unassigned) [Example 202], 160 nM. As to `CN(C(=O)C1COCC(=O)N1)[C@@H](c1ccc(NC2Cc3ccccc3C2(C)C)cn1)C(F)(F)F` (single isomer, unassigned) [Example 163], 190 nM corresponded to half-maximal inhibition (IC50). `CN(C(=O)CN1CCCS1(=O)=O)[C@@H](c1ccc(NC2Cc3ccc(Cl)c(F)c3C2)cn1)C(F)(F)F` (single isomer, unassigned) [Example 361] displayed an IC50 of 7200 nM. Compound `CN(C(=O)C1CCS(=O)(=O)CC1)[C@@H](c1ccc(NC2Cc3ccc(Cl)c(F)c3C2)cn1)C(F)(F)F` (single isomer, unassigned) [Example 276] gave a half-maximal inhibitory concentration (IC50) of 780 nM. In the case of `CN(C(=O)C1CCS(=O)(=O)CC1)[C@@H](c1ccc(NC2Cc3cccc(C#N)c3C2)cn1)C(F)(F)F` (single isomer, unassigned) [Example 257] it was 2000 nM; in that of `CN(C(=O)C1CCNCC1)[C@@H](c1ccc(NC2Cc3ccccc3C2(C)C)nc1)C(F)(F)F` (single isomer, unassigned) [Example 149], 240 nM. In the case of `CNC(=O)[C@H]1C[C@H](C(=O)N(C)[C@@H](c2ccc(NC3Cc4ccc(Cl)c(Cl)c4C3)cn2)C(F)(F)F)C1` (stereo partly drawn) [Example 363, (1,3-trans)-N^1-((1S)-1-(5-((4,5-Dichloro-2,3-dihydro-1H-inden-2-yl)amino)pyridin-2-yl)-2,2,2-trifluoroethyl)-N^1,N^3-dimethylcyclobutane-1,3-dicarboxamide] it was 70 nM; in that of `CNC(=O)N1CCC12CC(C(=O)N(C)[C@@H](c1ccc(NC3Cc4ccccc4C3(C)C)cn1)C(F)(F)F)C2` (single isomer, unassigned) [Example 239], 150 nM.

Turning to `CN(C(=O)C1CCS(=O)(=O)CC1)[C@@H](c1ccc(NC2Cc3c(F)ccc(F)c3C2)cn1)C(F)(F)F` [Example 273, (S)—N-(1-(5-((4,7-Difluoro-2,3-dihydro-1H-inden-2-yl)amino)pyridin-2-yl)-2,2,2-trifluoroethyl)-N-methyltetrahydro-2H-thiopyran-4-carboxamide 1,1-dioxide], the IC50 was found to be 460 nM. In the case of `CN1CCCC(C(=O)N(C)[C@@H](c2ccc(NC3Cc4ccccc4C3(C)C)cn2)C(F)(F)F)C1` (single isomer, unassigned) [Example 131] it was 260 nM. Under `CN(C(=O)CN1CC(=O)NC1=O)[C@@H](c1ccc(NC2Cc3ccccc3C2(C)C)cn1)C(F)(F)F` (single isomer, unassigned) [Example 212] stands 130 nM; under `CN(C(=O)C1CCS(=O)(=O)CC1)[C@@H](c1ccc(NC2Cc3ccc(Cl)c(Cl)c3C2)nc1)C(F)(F)F` (single isomer, unassigned) [Example 344], 310 nM.

The compound `CN(C(=O)N1CCS(=O)(=O)CC1)[C@@H](c1ccc(NC2Cc3ccccc3C2(C)C)cn1)C(F)(F)F` (single isomer, unassigned) [Example 143] displayed an IC50 of 680 nM. In the case of `CNC(=O)N1CCC12CC(C(=O)N(C)[C@@H](c1ccc(NC3Cc4ccccc4C3(C)C)cn1)C(F)(F)F)C2` (single isomer, unassigned) [Example 238] it was 470 nM; in that of `CN(C(=O)C1CCS(=O)(=O)CC1)[C@@H](c1ccc(NC2Cc3ccc(F)cc3C2)cn1)C(F)(F)F` (single isomer, unassigned) [Example 258], 4500 nM. In the case of `CN(C(=O)[C@@H]1CNC(=O)C1)[C@@H](c1ccc(NC2Cc3ccc(Cl)c(Cl)c3C2)cn1)C(F)(F)F` (single isomer, unassigned) [Example 318] it was 660 nM; in that of `CN(C(=O)CN1CC(=O)NC1=O)[C@@H](c1ccc(NC2Cc3ccccc3C2(C)C)cn1)C(F)(F)F` (single isomer, unassigned) [Example 213], 500 nM; in that of `COCCN1CCC12CC(C(=O)N(C)[C@@H](c1ccc(NC3Cc4ccccc4C3(C)C)cn1)C(F)(F)F)C2` (single isomer, unassigned) [Example 242], 200 nM. In the case of `CN(C(=O)C12CC(NS(C)(=O)=O)(C1)C2)[C@@H](c1ccc(NC2Cc3ccc(Cl)c(Cl)c3C2)cn1)C(F)(F)F` (single isomer, unassigned) [Example 322] it was 310 nM. As for `CN(C(=O)C1C2CS(=O)(=O)CC21)[C@@H](c1ccc(NC2Cc3ccccc3C2(C)C)cn1)C(F)(F)F` (single isomer, unassigned) [Example 214], the IC50 amounted to 320 nM. Compound `CN(C(=O)C1CCN(S(C)(=O)=O)CC1)[C@@H](c1ccc(NC2Cc3ccc(Cl)c(Cl)c3C2)cn1)C(F)(F)F` (single isomer, unassigned) [Example 326] came in with a concentration for half-maximal inhibition (IC50) of 240 nM. In the case of `CN(C(=O)C1(NS(C)(=O)=O)CC1)[C@@H](c1ccc(NC2Cc3ccc(Cl)c(F)c3C2)cn1)C(F)(F)F` (stereo partly drawn) [Example 290, N-((1S)-1-(5-((5-Chloro-4-fluoro-2,3-dihydro-1H-inden-2-yl)amino)pyridin-2-yl)-2,2,2-trifluoroethyl)-N-methyl-1-(methylsulfonamido)-cyclopropane-1-carboxamide] it was 120 nM; in that of `CNC(=O)C12CC(C(=O)N(C)[C@@H](c3ccc(N[C@@H]4Cc5ccccc5C4(C)C)cn3)C(F)(F)F)(C1)C2` [Example 203, N^1—((S)-1-(5-(((R)-1,1-Dimethyl-2,3-dihydro-1H-inden-2-yl)amino)pyridin-2-yl)-2,2,2-trifluoroethyl)-N^1,N^3-dimethylbicyclo[1.1.1]pentane-1,3-dicarboxamide], 120 nM; in that of `CN(C(=O)C1CCS(=O)(=O)CC1)[C@@H](c1ccc(NC2Cc3cccc(C(F)(F)F)c3C2)cn1)C(F)(F)F` (single isomer, unassigned) [Example 190], 3300 nM.

These data come from patent US20260184687A1, “DIHYDROINDENE DERIVATIVES AS MALT1 INHIBITORS” (C4X Discovery Limited, priority 2022, published 2026).
